Measured values taken from patent US20230096766A1, “AMINO ACID HAVING FUNCTIONAL GROUP CAPABLE OF INTERMOLECULAR HYDROGEN BONDING, PEPTIDE COMPOUND CONTAINING SAME AND METHOD FOR PRODUCTION THEREOF” (Chugai Seiyaku Kabushiki Kaisha, priority 2018, published 2023).
*1 amine or outer side, *2 acyl side, *3 side chain or, on linkers, in order; H or OH if unused. Where a SMILES comes first, the peptide text is derived from it. Bridges are numbered along the chain shown (N, C = ends). [ ]: non-standard residue; d: D form. The star is where a group is joined. Tyr(3-F) = N[C@@H](Cc1ccc(O)c(F)c1)C(=O)O; NMeW = CN[C@@H](Cc1c[nH]c2ccccc12)C(=O)O; NMeF = CN[C@@H](Cc1ccccc1)C(=O)O; NMeGABA = CN(CCCC(=O)[*:2])[*:1]; NMeI = CC[C@H](C)[C@H](NC)C(=O)O; NMeL = CN[C@@H](CC(C)C)C(=O)O; NMeV = CN[C@H](C(=O)O)C(C)C; NMeA = CN[C@@H](C)C(=O)O; Piperidide = C1CCN(*)CC1; Sar = CNCC(=O)O; tBu = CC(C)(C)*

Experiment: in vitro
Conditions: human, Caco-2, Caco-2 (cm/sec)

SMILES: CC(C)C[C@@H]1NC(=O)[C@H](Cc2c[nH]c3ccccc23)N(C)C(=O)[C@@H](C(C)C)NC(=O)C[C@@H](C(=O)N2CCCCC2)NC(=O)[C@H](CC(C)C)N(C)C(=O)[C@H](CC(C)C)N(C)C(=O)[C@H](COC(C)(C)C)NC(=O)[C@H](CC(C)C)N(C)C(=O)CN(C)C(=O)[C@H]([C@@H](C)O)NC(=O)[C@H](CC(C)C)N(C)C1=O [pd106] ([dV][NMeW]L[NMeL]T[Sar][NMeL]S(tBu)[NMeL][NMeL]D-Piperidide; lactam N-11)
- Papp: 0.36 ×10⁻⁶ cm/s

SMILES: CC[C@H](C)[C@@H]1NC(=O)[C@H](CC(C)C)N(C)C(=O)CCCN(C)C(=O)C[C@@H](C(=O)N2CCCCC2)NC(=O)[C@H](CC(C)C)N(C)C(=O)[C@H](CC(C)C)N(C)C(=O)[C@H]([C@@H](C)O)NC(=O)[C@H](CC(C)C)N(C)C(=O)[C@H](COC(C)(C)C)NC(=O)[C@H](Cc2c[nH]c3ccccc23)N(C)C(=O)[C@H](Cc2ccccc2)N(C)C1=O [pd107] ([NMeGABA][NMeL]I[NMeF][NMeW]S(tBu)[NMeL]T[NMeL][NMeL]D-Piperidide; lactam N-11)
- Papp: 0.17 ×10⁻⁶ cm/s

SMILES: CC[C@H](C)[C@@H]1NC(=O)[C@H](CC(C)C)N(C)C(=O)[C@@H](C)NC(=O)C[C@@H](C(=O)N2CCCCC2)NC(=O)[C@H](C(C)C)N(C)C(=O)[C@H](CC(C)C)N(C)C(=O)[C@H](COC(C)(C)C)NC(=O)[C@H](CC(C)C)N(C)C(=O)CN(C)C(=O)[C@H](Cc2c[nH]c3ccccc23)NC(=O)[C@H](CC(C)C)N(C)C1=O [pd108] ([dA][NMeL]I[NMeL]W[Sar][NMeL]S(tBu)[NMeL][NMeV]D-Piperidide; lactam N-11)
- Papp: 0.87 ×10⁻⁶ cm/s

SMILES: CC(C)C[C@H]1C(=O)N(C)[C@@H](Cc2c[nH]c3ccccc23)C(=O)N(C)[C@@H](Cc2ccccc2)C(=O)N[C@@H]([C@@H](C)O)C(=O)N(C)[C@@H](C)C(=O)N(C)[C@@H](CC(C)C)C(=O)N[C@H](C(=O)N2CCCCC2)CC(=O)N(C)[C@@H](C)C(=O)N(C)[C@@H](CC(C)C)C(=O)N(C)[C@@H](CC(C)C)C(=O)N[C@@H](C(C)C)C(=O)N1C [pd109] ([NMeA][NMeL][NMeL]V[NMeL][NMeW][NMeF]T[NMeA][NMeL]D-Piperidide; lactam N-11)
- Papp: 0.0092 ×10⁻⁶ cm/s

SMILES: CC[C@H](C)[C@@H]1NC(=O)[C@H](CC(C)C)N(C)C(=O)CCCN(C)C(=O)C[C@@H](C(=O)N2CCCCC2)NC(=O)[C@H](CC(C)C)N(C)C(=O)[C@H](C)N(C)C(=O)[C@H](Cc2c[nH]c3ccccc23)NC(=O)[C@H](CC(C)C)N(C)C(=O)[C@H](COC(C)(C)C)NC(=O)[C@H](CC(C)C)N(C)C(=O)[C@H](CC(C)C)N(C)C1=O [pd110] ([NMeGABA][NMeL]I[NMeL][NMeL]S(tBu)[NMeL]W[NMeA][NMeL]D-Piperidide; lactam N-11)
- Papp: 0.29 ×10⁻⁶ cm/s

SMILES: CC[C@H](C)[C@H]1C(=O)N[C@@H]([C@@H](C)O)C(=O)N(C)CC(=O)N(C)[C@@H](CC(C)C)C(=O)N[C@H](C(=O)N2CCCCC2)CC(=O)N(C)[C@@H](CC(C)C)C(=O)N[C@@H](CC(C)C)C(=O)N(C)[C@@H](CC(C)C)C(=O)N(C)[C@@H](Cc2c[nH]c3ccccc23)C(=O)N[C@@H](CC(C)C)C(=O)N(C)[C@@H](Cc2ccccc2)C(=O)N1C [pd111] ([NMeL]L[NMeL][NMeW]L[NMeF][NMeI]T[Sar][NMeL]D-Piperidide; lactam N-11)
- Papp: 0.16 ×10⁻⁶ cm/s

SMILES: CC[C@H](C)[C@@H]1NC(=O)[C@H](Cc2ccccc2)N(C)C(=O)[C@@H](C)NC(=O)C[C@@H](C(=O)N2CCCCC2)NC(=O)[C@H](CC(C)C)N(C)C(=O)[C@H](C)N(C)C(=O)[C@H](COC(C)(C)C)NC(=O)[C@H](C)N(C)C(=O)CN(C)C(=O)[C@H](Cc2ccc(O)cc2)NC(=O)[C@H](CC(C)C)N(C)C1=O [pd112] ([dA][NMeF]I[NMeL]Y[Sar][NMeA]S(tBu)[NMeA][NMeL]D-Piperidide; lactam N-11)
- Papp: 0.11 ×10⁻⁶ cm/s

SMILES: CC(C)C[C@@H]1NC(=O)[C@H](CC(C)C)N(C)C(=O)[C@H](C)N(C)C(=O)[C@@H](C(C)C)NC(=O)C[C@@H](C(=O)N2CCCCC2)NC(=O)[C@H]([C@@H](C)O)NC(=O)[C@H](C)N(C)C(=O)[C@H](C)N(C)C(=O)[C@H](CC(C)C)N(C)C(=O)[C@H](Cc2ccc(O)c(F)c2)NC(=O)[C@H](Cc2ccccc2)N(C)C1=O [pd113] ([dV][NMeA][NMeL]L[NMeF][Tyr(3-F)][NMeL][NMeA][NMeA]TD-Piperidide; lactam N-11)
- Papp: 0.029 ×10⁻⁶ cm/s

SMILES: CC(C)C[C@H]1C(=O)N[C@H](C(=O)N2CCCCC2)CC(=O)N(C)CCCC(=O)N(C)[C@@H](CC(C)C)C(=O)N[C@@H](Cc2ccc(O)c(F)c2)C(=O)N(C)[C@@H](CC(C)C)C(=O)N(C)[C@@H](Cc2ccccc2)C(=O)N[C@@H](COC(C)(C)C)C(=O)N(C)[C@@H](CC(C)C)C(=O)N[C@@H]([C@@H](C)O)C(=O)N(C)CC(=O)N1C [pd114] ([NMeGABA][NMeL][Tyr(3-F)][NMeL][NMeF]S(tBu)[NMeL]T[Sar][NMeL]D-Piperidide; lactam N-11)
- Papp: 0.17 ×10⁻⁶ cm/s

SMILES: CC(C)C[C@H]1C(=O)N[C@@H](Cc2ccc(O)cc2)C(=O)N(C)CC(=O)N(C)[C@@H](C)C(=O)N(C)[C@@H](CC(C)C)C(=O)N[C@@H](COC(C)(C)C)C(=O)N(C)[C@@H](C(C)C)C(=O)N[C@H](C(=O)N2CCCCC2)CC(=O)N(C)CC(=O)N(C)[C@@H](Cc2ccccc2)C(=O)N[C@@H](C(C)C)C(=O)N1C [pd115] ([Sar][NMeF]V[NMeL]Y[Sar][NMeA][NMeL]S(tBu)[NMeV]D-Piperidide; lactam N-11)
- Papp: 0.22 ×10⁻⁶ cm/s

SMILES: CC[C@H](C)[C@H]1C(=O)N[C@@H](Cc2ccc(O)cc2)C(=O)N(C)CC(=O)N(C)[C@@H](CC(C)C)C(=O)N[C@H](C(=O)N2CCCCC2)CC(=O)N(C)[C@@H](C)C(=O)N[C@@H](CC(C)C)C(=O)N(C)[C@@H](C)C(=O)N(C)[C@@H](Cc2ccccc2)C(=O)N[C@@H](C(C)C)C(=O)N(C)[C@@H](C)C(=O)N1C [pd116] ([NMeA]L[NMeA][NMeF]V[NMeA][NMeI]Y[Sar][NMeL]D-Piperidide; lactam N-11)
- Papp: 0.14 ×10⁻⁶ cm/s

SMILES: CC[C@H](C)[C@@H]1NC(=O)[C@H](CC(C)C)N(C)C(=O)[C@@H](C)NC(=O)C[C@@H](C(=O)N2CCCCC2)NC(=O)[C@H](C(C)C)N(C)C(=O)[C@H](Cc2ccccc2)N(C)C(=O)[C@H](COC(C)(C)C)NC(=O)[C@H](CC(C)C)N(C)C(=O)CN(C)C(=O)[C@H](Cc2ccc(O)cc2)NC(=O)[C@H](C)N(C)C1=O [pd117] ([dA][NMeL]I[NMeA]Y[Sar][NMeL]S(tBu)[NMeF][NMeV]D-Piperidide; lactam N-11)
- Papp: 0.56 ×10⁻⁶ cm/s

SMILES: CC(C)C[C@H]1NC(=O)C[C@@H](C(=O)N2CCCCC2)NC(=O)[C@H](C)N(C)C(=O)[C@H](CC(C)C)N(C)C(=O)[C@H](COC(C)(C)C)NC(=O)[C@H](CC(C)C)N(C)C(=O)CN(C)C(=O)[C@H]([C@@H](C)O)NC(=O)[C@H](CC(C)C)N(C)C(=O)[C@H](Cc2ccc(O)c(F)c2)NC(=O)[C@H](Cc2ccccc2)N(C)C1=O [pd118] ([dL][NMeF][Tyr(3-F)][NMeL]T[Sar][NMeL]S(tBu)[NMeL][NMeA]D-Piperidide; lactam N-11)
- Papp: 0.2 ×10⁻⁶ cm/s
